We go through nine compounds from patent publication US20080132454A1, “Antihypertensive Peptides” (priority 2004, published 2008).

As usually defined, the IC50 is the point on the concentration scale where inhibition reaches its midpoint. Higher therefore signals lower potency.

Data set [1] deals with T1, angiotensin converting enzyme (ACE) (Oryctolagus cuniculus, UniProt P12822).
T1 construct: purchased Sigma
T1 sequence (P12822 34-1310): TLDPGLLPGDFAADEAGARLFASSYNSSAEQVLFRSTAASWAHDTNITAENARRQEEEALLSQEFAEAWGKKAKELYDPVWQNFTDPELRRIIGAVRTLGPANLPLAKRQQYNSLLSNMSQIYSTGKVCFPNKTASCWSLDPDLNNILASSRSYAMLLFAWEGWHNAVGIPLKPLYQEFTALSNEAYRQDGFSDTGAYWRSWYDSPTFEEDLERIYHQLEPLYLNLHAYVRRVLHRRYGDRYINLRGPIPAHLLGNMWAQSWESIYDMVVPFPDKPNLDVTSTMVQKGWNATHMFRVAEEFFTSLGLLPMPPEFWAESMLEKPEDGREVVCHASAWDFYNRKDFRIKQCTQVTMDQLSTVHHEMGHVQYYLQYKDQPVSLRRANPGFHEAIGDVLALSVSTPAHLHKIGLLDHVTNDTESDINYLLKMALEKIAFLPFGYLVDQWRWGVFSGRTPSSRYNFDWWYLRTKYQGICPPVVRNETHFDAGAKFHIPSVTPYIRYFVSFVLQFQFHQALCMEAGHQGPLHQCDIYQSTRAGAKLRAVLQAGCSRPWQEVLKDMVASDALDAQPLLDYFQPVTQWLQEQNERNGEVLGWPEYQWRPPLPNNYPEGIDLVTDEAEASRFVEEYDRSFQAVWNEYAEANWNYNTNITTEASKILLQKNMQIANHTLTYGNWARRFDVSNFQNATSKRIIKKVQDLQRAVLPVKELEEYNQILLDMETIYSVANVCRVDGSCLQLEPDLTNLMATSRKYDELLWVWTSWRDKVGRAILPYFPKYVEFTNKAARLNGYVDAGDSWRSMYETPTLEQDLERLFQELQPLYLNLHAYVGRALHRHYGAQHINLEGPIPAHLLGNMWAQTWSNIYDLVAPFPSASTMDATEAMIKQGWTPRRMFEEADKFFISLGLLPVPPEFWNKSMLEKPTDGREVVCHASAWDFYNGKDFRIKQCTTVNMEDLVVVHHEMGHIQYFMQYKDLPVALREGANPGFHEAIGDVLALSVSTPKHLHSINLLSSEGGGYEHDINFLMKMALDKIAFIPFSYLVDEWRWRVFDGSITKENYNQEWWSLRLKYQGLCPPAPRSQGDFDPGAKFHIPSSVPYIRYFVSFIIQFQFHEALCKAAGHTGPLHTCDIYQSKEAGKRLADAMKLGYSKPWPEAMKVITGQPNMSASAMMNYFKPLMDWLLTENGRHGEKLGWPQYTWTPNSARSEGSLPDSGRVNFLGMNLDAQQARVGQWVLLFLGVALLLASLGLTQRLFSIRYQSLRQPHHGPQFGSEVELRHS
Briefly: ACE assay with purified ACE enzyme (Inhibition of Angiotensin Converting Enzyme). Format: biochemical. The conditions noted are these: purified ACE enzyme (Sigma); for ACE inhibiting activity (in words): judged from IC50 values; for IC50: synthetic peptides, purity >95%. The protocol:
In order to determine IC50 values for the peptides included in this invention, pure peptides (purity of >95% in weight) were prepared by custom solid-phase synthesis on a 10 μmol scale and subsequently purified by HPLC (synthesis and purification performed by Eurosequence, the Netherlands). Purified ACE enzyme (Sigma) was used for the ACE assay (Wu et al. 2002 J. Chromatography 950, 125-130). […] Finally, the peptides which are fragments of the amino acid sequences shown in SEQ ID NO: 1, SEQ ID NO: 2 and SEQ ID NO: 3, respectively SEQ ID NO: 7, SEQ ID NO: 8 and SEQ ID NO: 9 were tested for their ACE inhibiting activity.

Data set [2] can be described thus: Bioavailability: peptide amount in plasma after oral administration to mice. It is filed as in vivo. The conditions noted are these: mouse, 500 ug, Balb/C mice, 500 μg each orally, two hours after administration, HPLC-MS. The procedure: Peptides SEQ ID NO: 1, SEQ ID NO: 2 and SEQ ID NO: 3 (purity of >95% in weight, 500 μg each) were orally administered to mice (Balb/C, 3 months of age). After 2 hours, mice were sacrificed and a blood sample collected. After centrifugation of the blood sample (5 min, 3000 g) plasma was collected, dried and resuspended in ethyl acetate. The samples were then analyzed by HPLC-MS, and the amount of the peptides of this invention present in the plasma samples calculated using standard curves. Two hours after their oral administration, all three peptides were found in the plasma samples in the following amounts: SEQ ID NO: 1: 7.5 μg/ml, SEQ ID NO: 2: 1.2 μg/ml, and SEQ ID NO: 3: 0.9 μg/ml.

Residues, ends and D or L forms follow the SMILES beside them. No end group written: not given here.

With `NCCCC[C@H](NC(=O)[C@@H]1CCCN1C(=O)[C@@H](N)CCC(=O)O)C(=O)O` [SEQ ID NO: 9] (H-Glu-Pro-Lys-OH; N-terminus and C-terminus assumed), in data set [1], the “ACE inhibiting activity (in words)” value is recorded as “good ACE inhibitors” and the half-maximal inhibitory concentration (IC50) was 364 µM.

With YGPIPN [SEQ ID NO: 1], in data set [1], the “ACE inhibiting activity (in words)” value is on record as “strong inhibitors of ACE” and the IC50 amounted to 317 µM. The compound also had a level at 2 h in data set [2] of 7500 ng/mL.

Turning to `CC(C)C[C@H](N)C(=O)N1CCC[C@H]1C(=O)N[C@@H](CCC(=O)O)C(=O)O` [SEQ ID NO: 8] (H-Leu-Pro-Glu-OH; N-terminus and C-terminus assumed), in data set [1], the “ACE inhibiting activity (in words)” value was “good ACE inhibitors” and the IC50 amounted to 337 µM.

Regarding LSEPKV [SEQ ID NO: 6], in data set [1], the “ACE inhibiting activity (in words)” value is given as “good ACE inhibitors” and the IC50 turned out to be 397 µM.

For NSLPEN [SEQ ID NO: 5], in data set [1], the “ACE inhibiting activity (in words)” value was “good ACE inhibitors” and the IC50 is 369 µM.

For the compound `NCCCC[C@H](NC(=O)[C@@H]1CCCN1C(=O)[C@H](CCC(=O)O)NC(=O)[C@@H](N)CO)C(=O)O` [SEQ ID NO: 3] (H-SEPK-OH; N-terminus and C-terminus assumed), in data set [1], the “ACE inhibiting activity (in words)” value is “strong inhibitors of ACE” and the IC50 was found to be 354 µM. The compound further came in with a level at 2 h in data set [2] of 900 ng/mL.

As to GPIPN [SEQ ID NO: 7], in data set [1], the “ACE inhibiting activity (in words)” value is on record as “good ACE inhibitors” and the half-inhibitory concentration (IC50) amounted to 287 µM.

Regarding FYGPIPNS [SEQ ID NO: 4], in data set [1], the “ACE inhibiting activity (in words)” value was “good ACE inhibitors” and the IC50 is 435 µM.

For the compound `CC(C)C[C@H](NC(=O)[C@@H](N)CO)C(=O)N1CCC[C@H]1C(=O)N[C@@H](CCC(=O)O)C(=O)O` [SEQ ID NO: 2] (H-SLPE-OH; N-terminus and C-terminus assumed), in data set [1], the “ACE inhibiting activity (in words)” value is recorded as “strong inhibitors of ACE” and the IC50 came out at 329 µM. The compound further yielded a level at 2 h in data set [2] of 1200 ng/mL.
